# Laboratory results taken from patent US7205382B2, “Peptides, the production and use thereof for binding immunoglobulins” (Fresenius Medical Care Affina GmbH, priority 2000, dated 2007).
# Bridge positions count the residues as written; N and C are the ends. Square brackets hold non-standard residues; d marks the D form. Ends that are not written are not given here. cellulose = not defined here; βAla = NCCC(=O)O
# Legend:
# Format in all cases: binding
# Design in all cases: key: No binding of immunoglobulin for the defined peptide variant, detection negative: 0; Binding of immunoglobulin for the defined peptide variant, detection positive: +
# [1] = system: immunoglobulins in human plasma; experiment: Cellulose-immobilized 13-mer peptide variants incubated with human plasma, anti-human IgG-AP detection; settings: human plasma as sample, diluted 1:10,000 in blocking buffer, 3 h room temperature
# How it was run: (§1)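 Spot membrane, (βA)(βA) spacer; T-TBS pH 8.0 wash, block 5% saccharose/4% BSA. 3 h RT with IgG-Fc 1 μg/ml, serum 1:10,000, or block buffer only (specificity control). 3× wash, AP-anti-human IgG 1.2 μg/ml, NBT/BCIP in pH 9.5 buffer.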
# serum albumin = experiment: Cellulose-immobilized 13-mer peptide variants incubated with serum albumin (negative control), anti-human IgG-AP detection; settings: blocking buffer without addition, 3 h room temperature
# How it was run: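 Peptides on cellulose via a (βA)(βA) spacer were blocked in T-TBS (pH 8.0) with 5% saccharose and 4% BSA, then exposed for 3 h at room temperature to IgG-Fc (1 μg/ml), serum diluted 1:10,000, or blocking buffer alone. Bound IgG was detected with AP-anti-human IgG (1.2 μg/ml) and NBT/BCIP colour development.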
# human IgG-Fc = experiment: Cellulose-immobilized 13-mer peptide variants incubated with human IgG-Fc, anti-human IgG-AP detection; settings: IgG-Fc 1 μg/ml in blocking buffer, 3 h room temperature
# How it was run: as §1
Substance,Result for incubation with human plasma (immunoglobulin binding detection) [1],Result for incubation with serum albumin (immunoglobulin binding detection) (serum albumin),Result for incubation with human IgG-Fc (immunoglobulin binding detection) (human IgG-Fc)
07E: cellulose-bound 13-mer variant DCAWHLEELVWCT-(βA)(βA) (DCAWHLEELVWCT-{βAla-βAla-cellulose}; disulfide 2-12 (inferred); not fully specified (N-terminus); printed as DCAWHLEELVWCT-(βA)(βA); reading uncertain),0,0,0
09Q: cellulose-bound 13-mer variant DCAWHLGEQVWCT-(βA)(βA) (DCAWHLGEQVWCT-{βAla-βAla-cellulose}; disulfide 2-12 (inferred); reading uncertain; also: printed as DCAWHLGEQVWCT-(βA)(βA)),0,0,+
06W: cellulose-bound 13-mer variant DCAWHWGELVWCT-(βA)(βA) (DCAWHWGELVWCT-{βAla-βAla-cellulose}; disulfide 2-12 (inferred); not fully specified (N-terminus); printed as DCAWHWGELVWCT-(βA)(βA); reading uncertain),0,0,0
06K: cellulose-bound 13-mer variant DCAWHKGELVWCT-(βA)(βA) (DCAWHKGELVWCT-{βAla-βAla-cellulose}; disulfide 2-12 (inferred); not fully specified (N-terminus); printed as DCAWHKGELVWCT-(βA)(βA); reading uncertain),+,0,+
06A: cellulose-bound 13-mer variant DCAWHAGELVWCT-(βA)(βA) (DCAWHAGELVWCT[βAla][βAla]; disulfide 2-12 (inferred); not fully specified (N-terminus); printed as DCAWHAGELVWCT-(βA)(βA); also: cellulose-bound),0,0,+
09H: cellulose-bound 13-mer variant DCAWHLGEHVWCT-(βA)(βA) (DCAWHLGEHVWCT-{βAla-βAla-cellulose}; disulfide 2-12 (inferred); reading uncertain; also: printed as DCAWHLGEHVWCT-(βA)(βA)),0,0,0
06S: cellulose-bound 13-mer variant DCAWHSGELVWCT-(βA)(βA) (DCAWHSGELVWCT-{βAla-βAla-cellulose}; disulfide 2-12 (inferred); not fully specified (N-terminus); printed as DCAWHSGELVWCT-(βA)(βA); reading uncertain),0,0,+
11P: cellulose-bound 13-mer variant DCAWHLGELVPCT-(βA)(βA),0,0,0
03R: cellulose-bound 13-mer variant DCRWHLGELVWCT-(βA)(βA) (DCRWHLGELVWCT-{βAla-βAla-cellulose}; disulfide 2-12 (inferred); reading uncertain; also: printed as DCRWHLGELVWCT-(βA)(βA)),0,0,0
"05T: cellulose-bound 13-mer variant DCAWTLGELVWCT-(βA)(βA) (disulfide 2-12 (inferred); not fully specified (N-terminus, C-terminus); printed as DCAWTLGELVWCT-(βA)(βA); also: cellulose-bound)",0,0,0
03E: cellulose-bound 13-mer variant DCEWHLGELVWCT-(βA)(βA) (DCEWHLGELVWCT-{βAla-βAla-cellulose}; disulfide 2-12 (inferred); reading uncertain; also: printed as DCEWHLGELVWCT-(βA)(βA)),0,0,+
01Q: cellulose-bound 13-mer variant QCAWHLGELVWCT-(βA)(βA) (QCAWHLGELVWCT-{βAla-βAla-cellulose}; disulfide 2-12 (inferred); reading uncertain; also: printed as QCAWHLGELVWCT-(βA)(βA)),0,0,+
01V: cellulose-bound 13-mer variant VCAWHLGELVWCT-(βA)(βA) (VCAWHLGELVWCT-{βAla-βAla-cellulose}; disulfide 2-12 (inferred); reading uncertain; also: printed as VCAWHLGELVWCT-(βA)(βA)),0,0,0
02R: cellulose-bound 13-mer variant DRAWHLGELVWCT-(βA)(βA) (DRAWHLGELVWCT[βAla][βAla]; not fully specified; printed as DRAWHLGELVWCT-(βA)(βA); also: cellulose-bound),0,0,0
01C: cellulose-bound 13-mer variant CCAWHLGELVWCT-(βA)(βA) (CCAWHLGELVWCT[βAla][βAla]; cysteine pairing not given here; also: bound to cellulose support),0,0,0
11C: cellulose-bound 13-mer variant DCAWHLGELVCCT-(βA)(βA) (DCAWHLGELVCCT-{βAla-βAla-cellulose}; not fully specified (bridges); printed as DCAWHLGELVCCT-(βA)(βA); cysteine pairing not given here; reading uncertain),0,0,0
12A: cellulose-bound 13-mer variant DCAWHLGELVWAT-(βA)(βA) (DCAWHLGELVWAT-{βAla-βAla-cellulose}; not fully specified; printed as DCAWHLGELVWAT-(βA)(βA); reading uncertain),0,0,0
"04Y: cellulose-bound 13-mer variant DCAYHLGELVWCT-(βA)(βA) (disulfide 2-12 (inferred); not fully specified (N-terminus, C-terminus); printed as DCAYHLGELVWCT-(βA)(βA); also: cellulose-bound)",+,0,+
11S: cellulose-bound 13-mer variant DCAWHLGELVSCT-(βA)(βA),0,0,0
04K: cellulose-bound 13-mer variant DCAKHLGELVWCT-(βA)(βA) (DCAKHLGELVWCT[βAla][βAla]; disulfide 2-12 (inferred); also: cellulose-bound),+,0,+
02S: cellulose-bound 13-mer variant DSAWHLGELVWCT-(βA)(βA) (DSAWHLGELVWCT[βAla][βAla]; not fully specified; printed as DSAWHLGELVWCT-(βA)(βA); also: cellulose-bound),0,0,0
08L: cellulose-bound 13-mer variant DCAWHLGLLVWCT-(βA)(βA) (DCAWHLGLLVWCT-{βAla-βAla-cellulose}; disulfide 2-12 (inferred); not fully specified (N-terminus); printed as DCAWHLGLLVWCT-(βA)(βA); reading uncertain),0,0,0
